Measured values published in patent publication US9340616B2, “Methods and compositions for heptameric targeting ligands” (The University of North Carolina at Chapel Hill, priority 2011, dated 2016).

How the values were obtained:
[1] = tested on: EGFR-positive A431 cells; assay: MTS cell proliferation assay, A431; assay type: cell-based; conditions: 10 μM, 24 h, positive control
Procedure: (§1) FIGS. 10A-C. Cellular toxicity of heptameric molecules. A) A431 (EGFR), B) SK-OV3 (HER2), and C) LNCaP cells were incubated with 1 uM of each of the heptamer molecules for 24 hours at 37° C. Cisplatin (10 uM) was also incubated with each of the cells as a positive control. Cells without incubation with any proteins or cisplatin were used as a negative control.
(§2) A CellTiter96 Aqueous Non-Radioactive Cell Proliferation Assay kit from Promega (Madison, Wis.) was used for MTS assay. Approximately 10^4 cells were seeded on each well in a 96-well plate and grown for 16 hours at 37° C. Each heptameric molecule was incubated with the cells for 24 hours and Cis-platinum (II) diamine dichloride (cisplatin, CDDP) (Sigma-Aldrich Chemical Co) was used as positive control. 20 μl of MTS/PMS solution was added into each well followed by incubation for 4 hours at 37° C. The absorbance at 490 nm was recorded using an ELISA plate reader.
(§3) A CellTiter96 Aqueous Non-Radioactive Cell Proliferation Assay kit from Promega (Madision, Wis.) was used for the MTS assay. Approximately 1×10^4 cells were seeded in each well of a 96-well plate and grown for 16 h at 37° C. Each heptameric molecule was incubated with the cells for 24 h. 10 μM Cis-platinum (II) diamine dichloride (Sigma-Aldrich Chemical Co, St Louis, Mo.) was used as a positive control. […] The absorbance at 490 nm was recorded using an ELISA plate reader.

[2] = tested on: HER2-positive SK-OV3 cells; assay: MTS cell proliferation assay, SK-OV3; assay type: cell-based; conditions: 10 μM, 24 h, positive control
Procedure: as §1, §2, §3

## N.N.[Cl][Pt][Cl] [cisplatin, Cis-platinum (II) diamine dichloride]
[1]
  cell proliferation inhibited to: 50%
[2]
  cell proliferation inhibited to: 50%
